Holding throughout (type): cell-based
Series [1] relates to MSTO-wt (CD26-negative malignant mesothelioma cell line MSTO-211H). Nature of the series: WST-1 cytotoxicity assay, MSTO wt. Conditions: 48 hours. The text has this:
(§1) A CD26-negative malignant mesothelioma cell line MSTO-211H (MSTO) (American Type Cell Culture Collection, Manassas, Va.) was transfected with CD26 gene, which was designated as MSTO clone 12 (Aoe K et al., Clin Cancer Res. (2012) 18: 1447-56). A CD26-negative T-cell leukemia cell line Jurkat (American Type Cell Culture Collection, Manassas, Va.) was transfected with CD26 gene, which was designated as Jurkat CD26(+) (Tanaka T et al., Proc Natl Acad Sci USA (1993) 90: 4586-90). A CD26-positive cell line JMN established from malignant mesothelioma was kindly provided by professor Chikao Morimoto, the Institute of Medical Science, the University of Tokyo. All the cell lines were cultured in RPMI medium (catalog No. 11875-093, Life Technologies Corp., Carlsbad, Calif.) containing 10% heat-inactivated fetal bovine serum (FBS, Life Technologies Corp., Carlsbad, Calif.), ABPC (100 μg/ml), and streptomycin (100 μg/ml) at 37° C. under 5% CO2 environment.
(§2) WST-1 assay was conducted according to the manual provided by the manufacturer. The background absorbance of each sample at 630 nm was subtracted from the measurement value thereof at 450 nm. The experiment was conducted in triplicate, and typical results are shown.
(In general: Tetrazolium dyes change colour on reduction, which living cells bring about.)

For series [2], the system named is MSTO clone 12 (CD26-positive malignant mesothelioma cell line). Nature of the series: WST-1 cytotoxicity assay, MSTO clone 12.
Excerpt: as §1
(§3) WST-1 assay was conducted according to the manual provided by the manufacturer. The background absorbance of each sample at 630 nm was subtracted from the measurement value thereof at 450 nm.

For series [3], the system named is JMN (CD26-positive malignant mesothelioma cell line). Nature of the series: WST-1 cytotoxicity assay, JMN. Conditions: 48 hours.
Excerpt: as §1, §3

For series [4], the system named is Jurkat CD26(+) (T-cell leukemia cell line). Nature of the series: WST-1 cytotoxicity assay, Jurkat CD26(+). Conditions: 48 hours.
Excerpt: as §1, §3

The subject of series [5] is Jurkat CD26(−) (T-cell leukemia cell line). Nature of the series: WST-1 cytotoxicity assay, Jurkat CD26(−). Conditions: 48 hours.
Excerpt: as §1, §2

In a further series the test system is JMN cells. Nature of the series: MTT cell growth assay, JMN. Particulars: MESO1 (CD9+) vs JMN (CD9−); 10^−9 to 10^−4 M. The method, then: (§4) Gemcitabine was studied for its effect on the growth of a mesothelioma cell line. A mesothelioma cell line MESO1, JMN, H2452, or H226 (2×10^3 cells/well) was inoculated to a 96-well plate. One hour later, gemcitabine (10^−9, 10^−8, 10^−7, 10^−6, 10^−5, or 10^−4 M) was added thereto (N=6). 2 days later, MTT assay was conducted. Significant difference was tested by two-tailed t-test (vs Cont).
JMN cells (2×10^3 cells/well) were inoculated to a 96-well plate. One hour later, gemcitabine (0, 3×10^−10, 10^−9, or 3×10^−8 M) and YS110 (0, 1, 3, or 10 μg/ml) were added thereto in combination. At day 2, MTT assay was conducted. Significant difference was tested by two-tailed t-test (vs Cont). Next, interaction in concomitant use of medications was studied (n=6). The interaction between YS110 and gemcitabine used concomitantly was analyzed by two-way ANOVA.
(§5) MESO1, JMN, H2452 or H226 cells (2×10^3 cells/well were inoculated to a 96-well plate. One hour later, 3×10^−8 M or 10^−7 M gemcitabine was added thereto by concomitant use with the combination of cisplatin (0, 0.1, 0.3, or 1 μM) and pemetrexed (0, 0.03, 0.1, or 0.3 μM) (n=6). At day 2, MTT assay was conducted.
(§6) The growth inhibitory effects of cisplatin (10^−9 to 10^−4 M) and pemetrexed (10^−9 to 10^−4 M) were compared using the MESO1 and JMN cell lines.
(§7) The growth inhibitory effect of gemcitabine (10^−9 to 10^−4 M) was compared using MESO1, H2452, JMN, and H226 cell lines.

Series [6] has as its system H2452 cells. Nature of the series: MTT cell growth assay, H2452. Conditions: 10^−9 to 10^−4 M; day 2. The method, then:
(§8) MESO1 or H2452 cells (2×10^3 cells/well) were inoculated to a 96-well plate. One hour later, cisplatin or pemetrexed was added thereto at 10^−9, 10^−8, 10^−7, 10^−6, 10^−5, or 10^−4 M (n=6). At day 2, MTT assay was conducted.
H2452 cells (2×10^3 cells/well) were inoculated to a 96-well plate. One hour later, the combination of 0.03, 0.3, or 1 μM cisplatin and 0.1, 3, or 10 μg/ml YS110, or the combination of 0.01, 0.1, or 0.3 μM pemetrexed and 0.1, 3, or 10 μg/ml YS110 was added thereto (n=6). At day 2, MTT assay was conducted. Significant difference was tested by two-tailed t-test (vs Cont).
(§9) MESO1 cells (2×10^3 cells/well) or H2452 cells (2×10^3 cells/well) were inoculated to a 96-well plate. One hour later, 0.3 μM cisplatin-0.1 μM pemetrexed combination, or YS110 (10 μg/ml) plus the 0.3 μM cisplatin-0.1 μM pemetrexed combination was added thereto (n=6). At day 2, MTT assay was conducted. Significant difference was tested by two-tailed t-test (vs Cont).
as §4
H2452 cells (2×10^3 cells/well) were inoculated to a 96-well plate. One hour later, gemcitabine (0, 10^−8, 3×10^−8, or 10^−7 M) and YS110 (0, 1, 3, or 10 μg/ml) were added thereto in combination. At day 2, MTT assay was conducted. Significant difference was tested by two-tailed t-test (vs Cont). Next, interaction in concomitant use of medications was studied (n=6). The interaction between YS110 and gemcitabine used concomitantly was analyzed by two-way ANOVA.
as §5, §7

The subject of series [7] is MESO1 cells. Nature of the series: MTT cell growth assay, MESO1. Particulars: 10^−9 to 10^−4 M; day 2. The method, then:
as §8
MESO1 cells (2×10^3 cells/well) were inoculated to a 96-well plate. One hour later, the combination of 0.3, 3, or 10 μM cisplatin and 0.1, 3, or 10 μg/ml YS110, or the combination of 0.03, 0.3, or 1 μM pemetrexed and 0.1, 3, or 10 μg/ml YS110 was added thereto. At day 2, MTT assay was conducted. Significant difference was tested by two-tailed t-test (vs Cont).
as §9, §4
MESO1 cells (2×10^3 cells/well) were inoculated to a 96-well plate. One hour later, gemcitabine (0, 10^−8, 3×10^−8, or 10^−7 M) and YS110 (0, 1, 3, or 10 μg/ml) were added thereto in combination. At day 2, MTT assay was conducted. Significant difference was tested by two-tailed t-test (vs Cont). Next, interaction in concomitant use of medications was studied (n=6). The interaction between YS110 and gemcitabine used concomitantly was analyzed by two-way ANOVA.
as §5, §6, §7

Series [8] has as its system MESO1 cells. Nature of the series: Boyden chamber invasion assay, MESO1. Conditions: 24 hours; for action on cell invasion (in words): cisplatin at 10 and 30 μM, pemetrexed even at 30 μM. The method, then:
(§10) MESO1 cells or H2452 cells (2.5×10^4 cells/well) were inoculated to a Boyden chamber. One hour later, cisplatin (5, 10, or 30 μM) or pemetrexed (1, 10, or 30 μM) was added thereto (n=5), followed by Boyden chamber invasion assay. 24 hours after the cell inoculation, invasive cells were stained with Diff-Quik-staining kit. Significant difference was tested by two-tailed t-test (vs Cont).
(§11) MESO1 cells or H2452 cells (2.5×10^4 cells/well) were inoculated to a Boyden chamber. One hour later, the combination of cisplatin (0, 3, or 10 μM) and pemetrexed (0, 10, or 30 μM) was added thereto (n=5), followed by Boyden chamber invasion assay. 24 hours after the cell inoculation, invasive cells were stained with Diff-Quik-staining kit. Significant difference was tested by two-tailed t-test (vs Cont).
MESO1 cells (2.5×10^4 cells/well) were inoculated to a Boyden chamber. One hour later, the combination of cisplatin (0, 3, or 10 μM) and YS110 (0, 10, or 20 μg/ml) was added thereto (n=5), followed by Boyden chamber invasion assay. 24 hours after the cell inoculation, invasive cells were stained with Diff-Quik-staining kit. Significant difference was tested by two-tailed t-test (vs Cont). Next, the interaction of YS110 with cisplatin-pemetrexed concomitant use was studied. The interaction was analyzed by two-way ANOVA.

In series [9] the test system is H2452 cells. Nature of the series: Boyden chamber invasion assay, H2452. Conditions: 24 hours; for action on cell invasion (in words): cisplatin at 10 and 30 μM, pemetrexed even at 30 μM. The method, then: as §10, §11
H2452 cells (2.5×10^4 cells/well) were inoculated to a Boyden chamber. One hour later, the combination of cisplatin (0, 3, or 10 μM) and YS110 (0, 10, or 20 μg/ml) was added thereto (n=5), followed by Boyden chamber invasion assay. 24 hours after the cell inoculation, invasive cells were stained with Diff-Quik-staining kit. Significant difference was tested by two-tailed t-test (vs Cont). Next, the interaction of YS110 with cisplatin-pemetrexed concomitant use was studied. The interaction was analyzed by two-way ANOVA.

The mark [10] stands for this setting: pemetrexed even at 30 μM with cisplatin 10 μM.

Like-named read-outs stand apart in the source and are kept apart here. Some results are limits rather than exact numbers.

These results are taken from patent publication US11273217B2, “Cancer treatment composition combining anti-CD26 antibody and other anticancer agent” (Y's AC Co., Ltd., priority 2015, dated 2022).

What is called IC50 is the concentration that inhibits the measured activity by half.

As to `CC(C)[C@]12O[C@H]1[C@@H]1O[C@@]13C1(C)CCC4=C(COC4=O)[C@@H]1C[C@@H]1O[C@@]13[C@@H]2O` (stereo partly drawn) [Triptolide, (3bS,4aS,5aS,6R,6aR,7aS,7bS,8aS,8bS)-6-hydroxy-6a-isopropyl-8b-methyl-3b,4,4a,6,6a,7a,7b,8b,9,10-decahydrotrisoxireno[6,7:8a,9:4b,5]phenanthro[1,2-c]furan-1(3H)-one], the IC50 in [1] (Homo sapiens, MSTO-211H, MSTO wt, CD26 (−)) was 10 nM; in series [2] (MSTO clone12, CD26 (+), 48 hours, read-out: IC50), 10 nM; in series [3] (CD26 (+)), 15 nM; in series [4] (Homo sapiens, Jurkat CD26 (+)), 6 nM; in [5] (Homo sapiens, Jurkat (−)), over 100 nM. In addition, the “cytotoxicity (in words)” value in [1] (MSTO-wt) is given as “dose-dependent toxic effect”; in [2] (MSTO clone 12, 48 hours) it was “dose-dependent toxic effect”; in series [3], “dose-dependent toxic effect”; in [4] (Jurkat CD26(+)) it was “dose-dependent toxic effect”; in series [5] (Jurkat), “dose-dependent toxic effect”.

As for `Nc1nc2[nH]cc(CCc3ccc(C(=O)N[C@@H](CCC(=O)O)C(=O)O)cc3)c2c(=O)[nH]1` [pemetrexed], the “growth inhibitory effect compared between MESO1 and JMN” value with JMN cells is reported as “did not differ”. In addition, the “cell growth, single drug dose-response (in words)” value with H2452 cells [6] and in the series on MESO1 cells [7] was “suppressed the growth” throughout. Further, the “action on cell invasion (in words)” value in the series with MESO1 cells [8] and in the series on H2452 cells [9] was “no inhibitory action on invasion” in each case. For the same molecule, the “effect of pemetrexed on the cell invasion inhibitory effect of cisplatin” value with MESO1 cells [8] (setting [10]) and with H2452 cells [9] (setting [10]) was “did not potentiate” throughout.

As for `N.N.[Cl][Pt][Cl]` [cisplatin], the “growth inhibitory effect compared between MESO1 and JMN” value in the series with JMN cells is “did not differ”. Besides, the “cell growth, single drug dose-response (in words)” value with H2452 cells [6] and with MESO1 cells [7] was “suppressed the growth” each time. Also, the “action on cell invasion (in words)” value in the series on MESO1 cells [8] and in the series with H2452 cells [9] was “suppressed cell invasion” each time.

B1: Y-TR1 SPDP (conjugate)
heavy: EVQLVESGAGVKQPGGTLRLTCTASGFSLTTYGVHWVRQAPGKGLEWVGVIWGDGRTDYDAAFMSRVTISKDTSKSTVYLQMNSLRAEDTAVYYCMRNRHDWFDYWGQGTTVTVSSASTKGPSVFPLAPSSKSTSGGTAALGCLVKDYFPEPVTVSWNSGALTSGVHTFPAVLQSSGKLSSVVTVPSSSLGTQTYICNVNHKPSNTKVDKKVEPKSCDKTHTCPPCPAPELLGGPSVFLFPPKPKDTLMISRTPEVTCVVVDVSHEDPEVKFNWYVDGVEVHNAKTKPREEQYNSTYRVVSVLTVLHQDWLNGKEYKCKVSNKALPAPIEKTISKAKGQPREPQVYTLPPSRDELTKNQVSLTCLVKGFYPSDIAVEWESNGQPENNYKTTPPVLDSDGSFFKKLTVDKSRWQQGNVFSCSVMHEALHNHYTQKSLSLSPGK
light: DILLTQSPSSLSATPGERATITCRASQGIRNNLNWYQQKPGQAPRLLIYYSSNLQSGVPSRFSGSGSGTDFTLTISRLQPEDVAAYYCQQSIKLPFTFGSGTKVEIKRTVAAPSVFIFPPSDEQLKSGTASVVCLLNNFYPREAKVQWKVDNALQSGNSQESVTEQDSKDSTYSLSSTLTLSKADYEKHKVYACEVTHQGLSSPVTKSFNRGEC
B1: the IC50 in series [2] (MSTO clone12, CD26 (+), 48 hours) came out at 38 µg/mL; in series [2] (Table 5: comparison among 3 types of linkers, MSTO clone 12) it was 35 µg/mL.
